Patent EP4680608B1, “2,6-DIHYDRO-7H-PYRAZOLO[3,4-C]PYRIDIN-7-ONE DERIVATIVES AS ANTI-MALARIAL AGENTS” (MMV Medicines for Malaria Venture, priority 2024, dated 2025)
pEC50, pIC50: −log10 of the molar value. Read-outs that look alike come from different tables or passages of the source.

Tests used:
[1] = target: T1, P. falciparum DHODH (Plasmodium falciparum, UniProt Q08210); experiment: DHODH inhibition, steady-state DCIP assay (PfDHODH); assay type: biochemical; settings: recombinant PfDHODH, DCIP method, 25°C, 5 nM enzyme
T1 construct: His6 (N); made in house; host or cells: E. coli BL21-DE3 (phage-resistant)
Experimental: (§1) Compound stocks were prepared at 10-100 mM in DMSO, and diluted working stocks in DMSO were generated as appropriate. Compounds were plated from DMSO stocks in 96 well plate format using a Tecan D300e digital dispenser to generate a 3-fold dilution series over a concentration range of 0.0003 -100 µM (or 30 µM), yielding a final DMSO concentration of 1% in the assay. The top concentration used in the dose response was determined by the initial DMSO stock concentrations:100 µM for 100 mM stocks, and 30 µM for 10 mM stocks. Triplicate rate data were collected at each inhibitor concentration. Inhibitory IC50 values were determined by fitting the data to log (inhibitor) vs response equation Y = bottom + (top - bottom)/(1 + 10A ((X - Log IC50))) in GraphPad Prism.

[2] = tested on: P. falciparum 3D7; experiment: Asexual blood-stage growth inhibition assay, SYBR green method; assay type: cell-based; settings: ring-stage 3D7 parasites
Experimental: Asexual blood-stage EC50 assays. […] Compound stocks prepared in DMSO were plated using a Tecan D300e automated low volume liquid handler. Ring-stage 3D7 or Dd2 parasites (60 µL cells) (2% hematocrit, 0.5% parasitemia, final DMSO concentration 0.5%) were added to plates, incubated with compounds over a range of concentrations in technical triplicate for 72 h at 37 °C, 5% CO2, and then frozen (-80°C) overnight before analysis. […] Data were analyzed by non-linear regression using GraphPad Prism to determine the EC50 by fitting to the built-in equation (log(inhibitor) vs response-variable slope with four parameters).

[3] = target: P. vivax DHODH (Plasmodium vivax, UniProt A5K1N1); experiment: DHODH inhibition, steady-state DCIP assay (PvDHODH); assay type: biochemical
Excerpt: (§2) DOI: 10.1074/jbc.M206854200).
(§3) Proteins were expressed and purified on a Pharmacia FPLC using HisTrap HP column chromatography followed by gel filtration chromatography on a Pharmacia HiLoad 16/600 Superdex 200 column, and protein concentration determined based on OD280 using the previously described extinction coefficients (Kokkonda et al., 2020, J Med Chem, 63 (9), 4929-4956. DOI: 10.1021/acs.jmedchem.0c00311). Purified proteins were >95% pure based on SDS-PAGE analysis.
(§4) DHODH activity was monitored in a steady-state assay using the 2,6-dichloroindophenol (DCIP) method at 25°C in assay buffer (100 mM HEPES, pH 8.0, 150 mM NaCl, 1% glycerol, 0.1% Triton X-100 reduced) plus substrates 20 µM CoQD, 200 µM DHO, 120 µM DCIP, and 5 nM enzyme as previously described (Malmquist et al, 2008, Biochemistry, 47 (8), 2466-2475. DOI: 10.1021/bi702218c).
as §1, with “Prism. DSM265 ^2 was plated as an assay control in all studies.” for “Prism.”

[4] = target: T2, Human DHODH (Homo sapiens, UniProt Q02127); experiment: DHODH inhibition, steady-state DCIP assay (human DHODH); assay type: biochemical; settings: recombinant HsDHODH, DCIP method, 25°C, 5 nM enzyme; top concentration 100 µM or 30 µM
T2 construct: C-terminal His6-tagged HsDHODH residues 29-395 in pET-22b (start ^29MATGDE); His6 (C); made in house; host or cells: E. coli BL21-DE3 (phage-resistant)
Excerpt: as §2, §3, §4
as §1, with “Prism. DSM265 ^2 was plated as an assay control in all studies.” for “Prism.”

[5] = Plasmodium falciparum, 3D7, 72 h
[6] = recombinant PvDHODH, DCIP method, 25°C, 5 nM enzyme; read-out: P. vivax DHODH (IC50)
[7] = read-out: P. vivax DHODH (IC50); recombinant PvDHODH, DCIP method, 25°C, 5 nM enzyme

T1 sequence (Q08210 158-569): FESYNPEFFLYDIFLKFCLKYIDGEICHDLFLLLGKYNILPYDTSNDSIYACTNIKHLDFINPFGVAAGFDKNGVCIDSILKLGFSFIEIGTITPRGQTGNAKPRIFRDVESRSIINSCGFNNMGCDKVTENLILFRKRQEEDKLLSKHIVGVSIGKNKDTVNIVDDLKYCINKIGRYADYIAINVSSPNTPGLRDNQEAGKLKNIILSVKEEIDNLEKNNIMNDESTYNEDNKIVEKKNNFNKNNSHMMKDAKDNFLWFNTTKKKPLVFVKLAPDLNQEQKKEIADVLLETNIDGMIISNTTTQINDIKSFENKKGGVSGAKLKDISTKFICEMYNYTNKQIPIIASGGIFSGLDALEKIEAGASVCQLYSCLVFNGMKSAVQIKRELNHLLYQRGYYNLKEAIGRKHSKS
T2 sequence (Q02127 29-395): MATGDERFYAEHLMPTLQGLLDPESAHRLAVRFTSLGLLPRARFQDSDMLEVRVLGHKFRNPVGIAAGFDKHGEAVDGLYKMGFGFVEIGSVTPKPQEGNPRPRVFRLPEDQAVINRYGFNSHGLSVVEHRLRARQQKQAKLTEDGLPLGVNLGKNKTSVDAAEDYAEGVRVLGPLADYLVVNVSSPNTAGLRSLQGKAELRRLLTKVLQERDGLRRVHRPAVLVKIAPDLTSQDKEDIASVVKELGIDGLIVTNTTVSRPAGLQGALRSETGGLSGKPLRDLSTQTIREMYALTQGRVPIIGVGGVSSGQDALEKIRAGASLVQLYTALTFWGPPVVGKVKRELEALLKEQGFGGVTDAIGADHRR
Chain of P. vivax DHODH (A5K1N1 entry or part of it): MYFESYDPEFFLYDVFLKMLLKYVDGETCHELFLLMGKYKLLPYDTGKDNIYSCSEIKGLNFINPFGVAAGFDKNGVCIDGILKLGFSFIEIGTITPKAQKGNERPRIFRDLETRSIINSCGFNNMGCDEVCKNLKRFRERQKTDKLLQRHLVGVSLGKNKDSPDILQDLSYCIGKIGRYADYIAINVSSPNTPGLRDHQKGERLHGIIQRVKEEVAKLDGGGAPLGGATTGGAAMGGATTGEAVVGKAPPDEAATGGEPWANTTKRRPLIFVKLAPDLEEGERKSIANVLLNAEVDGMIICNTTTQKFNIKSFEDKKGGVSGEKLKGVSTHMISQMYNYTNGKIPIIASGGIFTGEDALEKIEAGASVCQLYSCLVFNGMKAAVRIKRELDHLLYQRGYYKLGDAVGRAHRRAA

Row | SMILES | pIC50 [1] | pEC50 [2, 5] | pIC50 [3, 6] | pIC50 [4] | pEC50 ([2]; 72 h) | pIC50 [3, 7]
1 | CC(C)[C@@](O)(c1cnc(C(F)(F)F)c(Cl)c1)c1c2ccn(C3CC3)c(=O)c2nn1C (single isomer, unassigned) [1-1] | 7.34 | 7.80 | 7.40 | < 4.52 |  | 
2 | Cn1nc2c(=O)n(C3CC3)ccc2c1[C@](O)(c1ccc(C(F)(F)F)c(C#N)c1)C1CC1 (single isomer, unassigned) [1-3] | 7.77 | 8.89 | 7.77 | < 4.52 |  | 
3 | CC[C@@](O)(c1ccc(C(F)(F)F)c(C#N)c1)c1c2ccn(C3CC3)c(=O)c2nn1C (single isomer, unassigned) [1-5] | 7.77 | 9.12 | 7.68 | 6.04 |  | 
4 | Cn1nc2c(=O)n(C3CC3)ccc2c1[C@](C)(O)c1ccc(F)c(Cl)c1 (single isomer, unassigned) [1-9] | 7.80 | 9.04 | 8.16 | 4.85 |  | 
5 | CC[C@@](O)(c1ccc(F)c(Cl)c1)c1c2ccn(C3CC3)c(=O)c2nn1C (single isomer, unassigned) [1-13] | 8.15 | 9.31 | 7.96 | 6.17 |  | 
6 | CC[C@@](O)(c1cnc(C(F)(F)F)c(Cl)c1)c1c2ccn(C3CC3)c(=O)c2nn1C (single isomer, unassigned) [1-14] | 7.85 | 9.19 | 7.74 | 5.38 |  | 
7 | Cn1nc2c(=O)n(C3CC3)ccc2c1[C@](O)(c1cnc(C(F)(F)F)c(Cl)c1)C1CC1 (single isomer, unassigned) [1-16] | 7.80 | 8.49 | 7.64 | < 4.52 |  | 
8 | Cn1nc2c(=O)n(C3CC3)ccc2c1[C@](O)(c1ccc(F)c(Cl)c1)C1CC1 (single isomer, unassigned) [1-18] | 7.92 | 8.05 | 7.96 | 4.66 |  | 
9 | CC[C@@](O)(c1cc(F)c(Cl)c(F)c1)c1c2ccn(C3CC3)c(=O)c2nn1C (single isomer, unassigned) [1-20] |  | 9.30 | 7.72 | 5.85 |  | 
10 | CC[C@@](O)(c1ccc(C(F)(F)F)nc1)c1c2ccn(C3CC3)c(=O)c2nn1C (single isomer, unassigned) [1-22] |  | 8.57 | 7.32 | 5.28 |  | 
11 | CCn1cc(F)c2c([C@@](O)(CC)c3ccc(C(F)(F)F)nc3)n(C)nc2c1=O (single isomer, unassigned) [1-24] | 7.62 | 8.92 | 7.48 | 5.21 |  | 
12 | Cn1nc2c(=O)n(C3CC3)ccc2c1[C@](O)(c1ccc(C(F)(F)F)nc1)C1CC1 (single isomer, unassigned) [1-26] | 7.34 | 8.17 | 7.32 | < 4.52 |  | 
13 | CCn1cc(C2CC2)c2c([C@H](O)c3cnc(C(F)(F)F)c(Cl)c3)n(C)nc2c1=O (single isomer, unassigned) [1-28] | 7.59 | 8.34 | 7.96 | < 4.00 |  | 
14 | CCn1cc(C)c2c([C@H](O)c3ccc(Cl)c(F)c3)n(C)nc2c1=O (single isomer, unassigned) [1-30] | 7.74 | 8.15 | 8.10 | 4.47 |  | 
15 | CCn1ccc2c([C@](O)(c3cnc(C(F)(F)F)c(Cl)c3)C3CC3)n(C)nc2c1=O (single isomer, unassigned) [1-32] |  | 8.62 | 8.10 | < 4.00 |  | 
16 | CCn1ccc2c([C@@](O)(CC)c3ccc(F)c(Cl)c3)n(C)nc2c1=O (single isomer, unassigned) [1-34] | 7.68 | 9.52 | 8.39 | 5.41 |  | 

Row | SMILES | pIC50 [1] | pEC50 [2, 5] | pIC50 [3, 6] | pIC50 [4] | pEC50 ([2]; 72 h) | pIC50 [3, 7]
17 | CCn1ccc2c([C@](C)(O)c3cnc(C(F)(F)F)c(Cl)c3)n(C)nc2c1=O (single isomer, unassigned) [1-36] | 7.35 | 8.85 | 8.04 | < 4.00 |  | 
18 | CCn1ccc2c([C@](O)(c3ccc(F)c(Cl)c3)C3CC3)n(C)nc2c1=O (single isomer, unassigned) [1-38] | 7.77 | 8.82 | 8.37 | 4.06 |  | 
19 | CCn1ccc2c([C@](C)(O)c3ccc(F)c(Cl)c3)n(C)nc2c1=O (single isomer, unassigned) [1-40] | 7.77 | 9.38 | 8.28 | 4.10 |  | 
20 | CCn1ccc2c([C@@](O)(CC)c3cnc(C(F)(F)F)c(Cl)c3)n(C)nc2c1=O (single isomer, unassigned) [1-42] | 7.89 | 9.31 | 8.10 | 4.39 |  | 
21 | CCn1ccc2c([C@](O)(c3ccc(C(F)(F)F)nc3)C3CC3)n(C)nc2c1=O (single isomer, unassigned) [1-44] |  | 8.14 | 7.54 | < 4.00 |  | 
22 | Cn1nc2c(=O)n(C3CC3)ncc2c1[C@](O)(c1cnc(C(F)(F)F)c(Cl)c1)C1CC1 (single isomer, unassigned) [2-10] |  | 7.82 | 7.68 | < 4.52 |  | 
23 | CC[C@@](O)(c1cnc(C(F)(F)F)c(Cl)c1)c1c2cnn(C3CC3)c(=O)c2nn1C (single isomer, unassigned) [2-14] |  | 8.57 |  | < 4.52 |  | 
24 | CC[C@@](O)(c1cnc(C(F)(F)F)c(Cl)c1)c1c2ncn(C3CC3)c(=O)c2nn1C (single isomer, unassigned) [3-5] |  | 9.03 | 7.77 | 5.17 |  | 
25 | Cn1nc2c(=O)n(C3CC3)ccc2c1[C@](N)(c1cnc(C(F)(F)F)c(Cl)c1)C1CC1 (single isomer, unassigned) [4-9] | 7.36 | 7.85 |  | 4.68 |  | 
26 | CC[C@@](N)(c1ccc(C(F)(F)F)c(Cl)c1)c1c2cnn(C3CC3)c(=O)c2nn1C (single isomer, unassigned) [4-18] |  | 8.47 | 8.21 | 5.33 |  | 
27 | Cn1nc2c(=O)n(C3CC3)ncc2c1[C@](O)(c1cnc(C(F)(F)F)c(Cl)c1)C(F)(F)F (single isomer, unassigned) [5-1] |  | 8.42 | 7.70 | < 4.52 |  | 
28 | Cn1nc2c(=O)n(C3CC3)ccc2c1[C@](O)(c1cnc(C(F)(F)F)c(Cl)c1)C(F)(F)F (single isomer, unassigned) [5-5] |  | 9.29 |  | < 4.52 |  | 
29 | Cn1nc2c(=O)n(C3CC3)ccc2c1[C@](O)(c1ccc(C(F)(F)F)nc1)C(F)(F)F (single isomer, unassigned) [5-11] |  | 8.72 | 7.60 | < 4.52 |  | 
30 | Cn1nc2c(=O)n(C3CC3)cnc2c1[C@](O)(c1ccc(C(F)(F)F)c(C#N)c1)C(F)(F)F (single isomer, unassigned) [5-56] | 7.74 |  |  |  | 9.85 | 
31 | Cn1nc2c(=O)n(C3CC3)ccc2c1[C@](O)(c1ccc(C(F)(F)F)c(Cl)c1)C(F)(F)F (stereo in doubt) [5-7] |  | 9.77 |  | 5.33 |  | 8.04
32 | Cn1nc2c(=O)n(C3CC3)ccc2c1[C@](C)(O)c1cnc(C(F)(F)F)c(Cl)c1 [1-10] | 7.60 | 8.85 |  |  |  | 8.01
